According to US4593090A, “Novel nitrosourea compounds, method for preparing same, and pharmaceutical composition containing same” (Gogo Kimura, priority 1981, dated 1986):
Read-outs that look alike come from different tables or passages of the source.

How the values were obtained:
Leukemia L1210 [1] = assay: Activity against Leukemia L1210, oral, increase in life span of mice; type: in vivo, female mice (BDF1 family); conditions: for ED (maximum ILS) / ED30: Mus musculus, L1210, oral once a day for 5 successive days; for ED (maximum ILS): daily dosage giving maximum increase of life span, read-out: O.D. (optimum dosage); for ED30: daily dosage increasing average survival days by 30%, read-out: ILS30; for Survivors after 60 days / Max. ILS % / Therapeutic ratio TR: oral; for Survivors after 60 days: 6-membered group; for Max. ILS %: 60-day observation, versus control; for Therapeutic ratio TR: O.D./ILS30
Method: Tests were conducted in accordance with the method for measuring antitumor activity of National Cancer Center Tokyo (A, Hoshi et al, Farumashia 9 464 (1973)). Test compounds were each intraperitoneally (referred to as ip) or orally (referred to as op) administered once a day for 5 successive days to a 6-membered group of femal mice (BDF1 family, each weighing 20 to 23 g) 24 hours after 1×10^5 cells of Leukemia L1210 have been implantated into the abdominal cavities of the mice, and the effect was evaluated by comparing the survival days of treated groups with those of an untreated group of mice (control group) in 60-day observation. An increase percentage of life span (ILS%) was calculated from said average survival days compared with those of the control group. Further, therapeutic ratio (O.D./ILD30, referred to as T.R.) of each tested compound was calculated from the daily dosage of the compound necessary to increase said average survival days by 30% as compared with the control group (this dosage is referred to as ILS 30) and the daily dosage giving a maximum increase of life span to mice implantated with L1210 cells, namely an optimum dosage (referred to as O.D.). The results of five successive days intraperitoneal administrations of test compounds were shown in Tables I to III, and those of five successive oral administrations in Table IV.

[2] = Acute toxicity (LD50, Behrens-Karber method); type: in vivo, ICR mice; conditions: mouse, in vivo, ip, mortality during 30 days
Method: Test compounds, dissolved or suspended in 0.5% aqueous CMC, were each intraperitoneally administered to ICR mice in a dose of 0.1 ml per 10 g body weight. LD50 (mg/kg) value of each test compound was calculated from the mortality of mice during 30 days by the Behrens-Karber method.

Ehrlich acites carcinoma = assay: Growth-inhibiting effect against Ehrlich acites carcinoma; type: in vivo, male mice; conditions: 5 days; for response vs control in vivo at 3.2 mg/kg: 3.2 mg/kg/day ip; for response vs control in vivo at 6.3 mg/kg: 6.3 mg/kg/day ip; for response vs control in vivo at 25 mg/kg: 25 mg/kg/day ip; for response vs control in vivo at 100 mg/kg: 100 mg/kg/day ip
Procedure, shortened: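 Activity graded from T/C% of total packed ascites cell volume on day 7 (treated vs untreated): - 100-66, + 65-41, ++ 40-11, +++ 10-0. Groups of 6 male mice bore 1×10^7 i.p.-implanted cells and received compound (1% Nikkol HCO-60) i.p. daily for 5 days from 24 hrs after implantation.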

Leukemia L1210 [3] = assay: Activity against Leukemia L1210, intraperitoneal, increase in life span of mice; type: in vivo, female mice (BDF1 family); conditions: for ED (maximum ILS) / ED30: Mus musculus, L1210, ip, ip once a day for 5 successive days; for ED (maximum ILS): daily dosage giving maximum increase of life span, read-out: O.D. (optimum dosage); for ED30: daily dosage increasing average survival days by 30%, read-out: ILS30; for Survivors after 60 days / Max. ILS % / Therapeutic ratio TR: ip; for Survivors after 60 days: 6-membered group; for Max. ILS %: 60-day observation, versus control; for Therapeutic ratio TR: O.D./ILS30
Procedure, shortened: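 L1210 cells (1×10^5) into abdominal cavity of female BDF1 mice, 20–23 g, n=6/group. Dosing 24 h post-implant, ip or po, qd ×5. 60-day observation; ILS% = mean survival vs untreated control; T.R. = O.D./ILS 30.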

[4] = Mus musculus, Ehrlich, 120 h, read-out: Activity
[5] = Mus musculus, Ehrlich, 120 h, read-out: T/C %

Row | Structure (SMILES) | ED (maximum ILS) (Leukemia L1210 [1]) [mg/kg] | ED30 (Leukemia L1210 [1]) [mg/kg] | Survivors after 60 days (Leukemia L1210 [1]) | Max. ILS % (Leukemia L1210 [1]) [%] | Therapeutic ratio TR (Leukemia L1210 [1]) | LD50 at 720 h [2] [mg/kg] | ED (maximum ILS) (Leukemia L1210 [3]) [mg/kg] | ED30 (Leukemia L1210 [3]) [mg/kg] | Survivors after 60 days (Leukemia L1210 [3]) | Max. ILS % (Leukemia L1210 [3]) [%] | Therapeutic ratio TR (Leukemia L1210 [3]) | response vs control in vivo at 25 mg/kg (Ehrlich acites carcinoma; [4]) [%] | response vs control in vivo at 25 mg/kg (Ehrlich acites carcinoma; [5]) [%] | response vs control in vivo at 100 mg/kg (Ehrlich acites carcinoma; [4]) [%] | response vs control in vivo at 100 mg/kg (Ehrlich acites carcinoma; [5]) [%] | also measured
1 | CO[C@H]1O[C@H](CNC(=O)N(CCCl)N=O)[C@@H](O)[C@H](O)[C@H]1O [Compound 6MCαG, 3-(methyl α-D-glucopyranose-6-yl)-1-(2-chloroethyl)-1-nitrosourea, reference compound] | 16.8 | 2.45 | 6/6 | > 700 | 6.86 | 40 | 13.5 | 0.53 | 6/6 | > 700 | 25.5 |  |  |  |  | Activity (toxicity in words) (Ehrlich acites carcinoma; 12.5 mg/kg/day ip): Toxic (2/6); response vs control in vivo at 3.2 mg/kg (Ehrlich acites carcinoma; [4]): 0 to 10%; response vs control in vivo at 3.2 mg/kg (Ehrlich acites carcinoma; [5]): 0%; response vs control in vivo at 6.3 mg/kg (Ehrlich acites carcinoma; [4]): 0 to 10%; response vs control in vivo at 6.3 mg/kg (Ehrlich acites carcinoma; [5]): 0%; response vs control in vivo at 12.5 mg/kg (Ehrlich acites carcinoma; Mus musculus, Ehrlich, 120 h, 12.5 mg/kg/day ip, read-out: T/C %): 0%
2 | CCCCO[C@H]1O[C@H](CN(CC(C)OC)C(=O)N(CCCl)N=O)[C@@H](O)[C@H](O)[C@H]1O (stereo partly drawn) [Compound 11, 3-(2-methoxy-n-propyl)-3-(n-butyl α-D-glucopyranose-6-yl)-1-(2-chloroethyl)-1-nitrosourea] | 220 | 9.57 | 6/6 | > 700 | 23.0 | 495 | 170 | 2.9 | 6/6 | > 700 | 58.6 | 0 to 10 | 0 | 0 to 10 | 0 | 
3 | COCC(C)N(C[C@H]1O[C@H](OCC(C)C)[C@H](O)[C@@H](O)[C@@H]1O)C(=O)N(CCCl)N=O (stereo partly drawn) [Compound 16, 3-(1-methyl-2-methoxyethyl)-3-(isobutyl α-D-glucopyranose-6-yl)-1-(2-chloroethyl)-1-nitrosourea] | 240 | 8.82 | 6/6 | > 700 | 27.2 | 580 | 190 | 2.9 | 6/6 | > 700 | 65.6 | 0 to 10 | 0 | 0 to 10 | 0 | 
4 | COCC(C)N(C[C@H]1O[C@H](OC2CCCCC2)[C@H](O)[C@@H](O)[C@@H]1O)C(=O)N(CCCl)N=O (stereo partly drawn) [Compound 42, 3-(1-methyl-2-methoxyethyl)-3-(cyclohexyl α-D-glucopyranose-6-yl)-1-(2-chloroethyl)-1-nitrosourea] | 230 | 7.88 | 6/6 | > 700 | 29.2 | 595 | 180 | 2.7 | 6/6 | > 700 | 66.6 | 0 to 10 | 0 | 0 to 10 | 0 | 
5 | COCCN(C(=O)N(CCCl)N=O)C1C(OC(C)COC)OC(CO)C(O)C1O [Compound 71, 3-(2-methoxyethyl)-3-(1-methyl-2-methoxyethyl α-D-glucopyranose-2-yl)-1-(2-chloroethyl)-1-nitrosourea] | 220 | 13.1 | 4/6 | > 440 | 16.8 | 560 | 180 | 4.17 | 6/6 | > 700 | 43.2 | 0 to 10 | 0 | 0 to 10 | 0 | 
6 | O=NN(CCCl)C(=O)N(C1CCCCC1)C1C(OCC2CCCO2)OC(CO)C(O)C1O [Compound 75, 3-cyclohexyl-3-(tetrahydrofurfuryl α-D-glucopyranose-2-yl)-1-(2-chloroethyl)-1-nitrosourea] | 200 | 11.6 | 4/6 | > 450 | 17.2 | 505 | 160 | 3.67 | 5/6 | > 625 | 43.6 | 0 to 10 | 0 | 0 to 10 | 0 | 
7 | COCCN(C[C@H]1O[C@H](OC2CCCCC2)[C@H](O)[C@@H](O)[C@H]1O)C(=O)N(CCCl)N=O [Compound 101, 3-(2-methoxyethyl)-3-(cyclohexyl α-D-galactopyranose-6-yl)-1-(2-chloroethyl)-1-nitrosourea] | 250 | 11.2 | 4/6 | > 460 | 22.3 | 660 | 200 | 3.66 | 6/6 | > 700 | 54.6 | 0 to 10 | 0 | 0 to 10 | 0 | 
8 | CCOCCO[C@H]1O[C@H](CN(CC(C)C)C(=O)N(CCCl)N=O)[C@H](O)[C@H](O)[C@H]1O [Compound 114, 3-isobutyl-3-(2-ethoxyethyl α-D-galactopyranose-6-yl)-1-(2-chloroethyl)-1-nitrosourea] | 210 | 9.05 | 6/6 | > 700 | 23.2 | 580 | 180 | 2.86 | 6/6 | > 700 | 62.9 | 0 to 10 | 0 | 0 to 10 | 0 | 
9 | CCCCO[C@H]1O[C@H](CO)[C@H](N(C(=O)N(CCCl)N=O)C(C)COC)[C@H](O)[C@H]1O (stereo partly drawn) [Compound 132, 3-(1-methyl-2-methoxyethyl)-3-(n-butyl α-D-galactopyranose-4-yl)-1-(2-chloroethyl)-1-nitrosourea] | 200 | 14 | 3/6 | > 345 | 14.3 | 550 | 160 | 3.86 | 4/6 | > 420 | 41.5 | 0 to 10 | 0 | 0 to 10 | 0 | 
